Results taken from ChEMBL document CHEMBL5143757, “Combination of Cyclin-Dependent Kinase 4 Inhibitors and Androgen Receptor Inhibitors as Cancer Therapy” (2022).

Key:
Type in all cases: functional
Details in all cases: 96 h, read-out: GI
[1] = Growth inhibition of human LNCaP/AR cells assessed as decrease in tumor spheroid growth at 1000 nM with media replenishment twice per week along with 3 to 4-day interval compound relative to control
[2] = Growth inhibition of human LNCaP/AR cells assessed as decrease in tumor spheroid growth at 100 nM with media replenishment twice per week along with 3 to 4-day interval compound relative to control
[3] = Growth inhibition of human LNCaP/AR cells assessed as decrease in tumor spheroid growth at 300 nM with media replenishment twice per week along with 3 to 4-day interval compound in presence of enzalutamide relative to control
[4] = Growth inhibition of human LNCaP/AR cells assessed as decrease in tumor spheroid growth at 300 nM with media replenishment twice per week along with 3 to 4-day interval compound relative to control
[5] = Growth inhibition of human LNCaP/AR cells assessed as decrease in tumor spheroid growth at 1000 nM with media replenishment twice per week along with 3 to 4-day interval compound in presence of palbociclib relative to control
[6] = Growth inhibition of human LNCaP/AR cells assessed as decrease in tumor spheroid growth at 1000 nM with media replenishment twice per week along with 3 to 4-day interval compound in presence of Compound A relative to control
[7] = Growth inhibition of human LNCaP/AR cells assessed as decrease in tumor spheroid growth at 30 nM with media replenishment twice per week along with 3 to 4-day interval compound relative to control
[8] = Growth inhibition of human LNCaP/AR cells assessed as decrease in tumor spheroid growth at 30 nM with media replenishment twice per week along with 3 to 4-day interval compound in presence of enzalutamide relative to control

CC(C)n1c(C(C)(C)O)nc2c(F)cc(-c3nc(N[C@@H]4CCOC[C@H]4O)ncc3Cl)cc21 [ATIRMOCICLIB]
inhibition of growth at 1 µM [1]: 53%
inhibition of growth at 0.1 µM [2]: 27%
inhibition of growth at 0.3 µM [3]: 70%
inhibition of growth at 0.3 µM [4]: 38%

CNC(=O)c1ccc(N2C(=S)N(c3ccc(C#N)c(C(F)(F)F)c3)C(=O)C2(C)C)cc1F [ENZALUTAMIDE]
inhibition of growth at 1 µM [1]: 46%
inhibition of growth at 1 µM [5]: 47%
inhibition of growth at 1 µM [6]: 70%

CC(=O)c1c(C)c2cnc(Nc3ccc(N4CCNCC4)cn3)nc2n(C2CCCC2)c1=O [PALBOCICLIB]
inhibition of growth at 0.03 µM [7]: 5%
inhibition of growth at 0.03 µM [8]: 47%
inhibition of growth at 0.1 µM [2]: 24%
